According to patent publication US20020054880A1, “Anti-inflammatory, tolerogenic and immunoinhibiting properties of carbohydrate binding-peptides” (priority 1992, published 2002):
Like-named read-outs stand apart in the source and are kept apart here.

How the values were obtained:
[1] = target: αNeuAc(2-3)βGal(1-3)βGlcNAc-BSA (1-4) αFuc (Bos taurus, UniProt P02769); conditions: SLe^a(C19.9); conjugate 50 μg/mL; 0.5 μg SPYGRC-b, 1 hour
Protocol: (§1) Binding assays were carried out essentially as described above using microtiter wells that were coated with 50 μl of BSA glycoconjugate (50 μg/ml) in 50 mM sodium phosphate buffer (pH 6.8) containing 5 mM MgCl2 nd 15 mM NaN3 for 16 hours at 4° C. The solution was removed by aspiration and replaced with 100 μl of 1% BSA in PBS containing 0.05% Tween 20 (PBST) and incubated at room temperature for an additional 2-3 hours. […] After incubating for 1 hour, the binding reaction was stopped by aspirating the solutions and the plate was washed with PBST (4×300 μl). Avidin-peroxidase (100 μl of a 1/3000 dilution of a 1 mg/ml solution in PBST) was added and incubated for an additional 1 hour. After washing the wells as described above, the substrate solution (1 mM ABTS in 5 mM citrate buffer, pH 4.2, containing 0.1% hydrogen peroxide, v/v) was added and the plates were incubated for 30 minutes. Binding assays for each BSA conjugate were done in triplicate and background binding was measured in wells coated with BSA only.

[2] = target: αNeuAc(2-3)βGal(1-3)βGlcNAc-BSA (Bos taurus, UniProt P02769); conditions: SLe^c; conjugate 50 μg/mL; 0.5 μg SPYGRC-b, 1 hour
Protocol: as §1

[3] = target: αNeuAc(2-3)βGal(1-4)βGlcNAc-BSA (1-3) αFuc (Bos taurus, UniProt P02769); conditions: SLe^x; conjugate 50 μg/mL; 0.5 μg SPYGRC-b, 1 hour
Protocol: as §1

[4] = target: αNeuAc(2-3)βGal(1-4)βGlcNAc-BSA (Bos taurus, UniProt P02769); conditions: conjugate 50 μg/mL, 0.5 μg SPYGRC-b, 1 hour
Protocol: as §1

[5] = target: T1, PT-biotin binding to fetuin (Bos taurus, UniProt P12763); assay: PT-biotin binding to fetuin, binding inhibition assay; parameters: species or system Bordetella pertussis; conditions: + enhancement, − inhibition
T1 construct: purchased Sigma Chemical Company (fetuin); Connaught Center for Biotechnology Research (PT)
T1 sequence (P12763 19-359): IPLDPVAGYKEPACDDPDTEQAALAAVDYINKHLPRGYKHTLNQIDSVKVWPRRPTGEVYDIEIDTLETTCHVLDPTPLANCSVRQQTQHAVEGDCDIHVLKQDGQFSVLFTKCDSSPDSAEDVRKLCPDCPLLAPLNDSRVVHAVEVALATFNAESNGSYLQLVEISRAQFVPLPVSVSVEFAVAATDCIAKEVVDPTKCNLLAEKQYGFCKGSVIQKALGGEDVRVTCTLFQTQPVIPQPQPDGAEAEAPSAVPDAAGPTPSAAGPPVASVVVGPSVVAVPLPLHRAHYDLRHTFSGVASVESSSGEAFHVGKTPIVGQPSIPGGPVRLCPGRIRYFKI
Protocol: (§2) Peptides ranging in concentration from 0.5 to 4.5 mg/ml in PBS (40 μl) were added to each well and PT-biotin (10 μl containing 10 ng in PBS) was then added to the microtiter wells. […] Horseradish peroxidase-conjugated avidin (100 μl, 1/3000 dilution in PBST to a concentration of 0.3 μg/ml) was then added to the wells, and the plates were incubated at ambient temperature for 1 hour. […] Color development was recorded at 405 nm using a Titertek Multiskan MC plate reader. […] Binding assays for each peptide were done in duplicate. Binding inhibition experiments utilizing SNA-, WGA-, and MAL-biotin were performed as described above using 10 ng of each biotinylated lectin in PBS.
(§3) Binding assays for each inhibitor concentration were done at least in duplicate, and the average value varied less than 15%.

[6] = target: T2, MAL-biotin binding to fetuin (Bos taurus, UniProt P12763); assay: MAL-biotin binding to fetuin, binding inhibition assay; parameters: species or system Maackia amurensis; conditions: + enhancement, − inhibition
T2 construct: purchased Sigma Chemical Company (fetuin); Boehringer Mannheim (MAL-biotin)
T2 sequence (P12763 19-359): T1 sequence (P12763 19-359)
Protocol: as §2, §3

[7] = target: T3, SNA-biotin binding to fetuin (Bos taurus, UniProt P12763); assay: biochemical; conditions: + enhancement, − inhibition
T3 sequence (P12763 19-359): T1 sequence (P12763 19-359)
Protocol: (§4) The solution was removed by aspiration and replaced with 100 μl of 1% BSA in PBS containing 0.05% Tween 20 (PBST). After incubation for 2-4 hours at room temperature, the microtiter wells were washed four times with 300 μl of PBST. Peptides ranging in concentration from 0.5 to 4.5 mg/ml in PBS (40 μl) were added to each well and PT-biotin (10 μl containing 10 ng in PBS) was then added to the microtiter wells. After incubating for 1 hour, the binding reaction was stopped by aspirating the solutions and the plate was washed with PBST (300 μl). Horseradish peroxidase-conjugated avidin (100 μl, 1/3000 dilution in PBST to a concentration of 0.3 μg/ml) was then added to the wells, and the plates were incubated at ambient temperature for 1 hour. After washing the wells as described above, the substrate solution [1 mM ABTS in 5 mM citrate buffer, pH 4.2, containing 0.1% hydrogen peroxide, v/v) was added and the plates were incubated for 30 minutes. Color development was recorded at 405 nm using a Titertek Multiskan MC plate reader. Maximum binding was determined in the absence of peptide, and background binding was measured in wells coated with BSA only. Binding assays for each peptide were done in duplicate. Binding inhibition experiments utilizing SNA-, WGA-, and MAL-biotin were performed as described above using 10 ng of each biotinylated lectin in PBS.

[8] = target: T4, WGA-biotin binding to fetuin (Bos taurus, UniProt P12763); assay: biochemical; conditions: + enhancement, − inhibition
T4 sequence (P12763 19-359): T1 sequence (P12763 19-359)
Protocol: as §4

[9] = target: T5, PT-biotin binding to asialofetuin (Bos taurus, UniProt P12763); assay: PT-biotin binding to asialofetuin, binding inhibition assay; parameters: species or system Bordetella pertussis; conditions: peptide mg/mL: S2PL 1.2, ACS2P1 1.0, S2P2 1.1, S2P3 0.51, S2P4 0.98, S2P6 0.85, S3P1 3.2, S3P2 3.1, S3P3 4.5, S3P4 3.3, S3P5 0.48, SPYGRC 4.4; + enhancement, − inhibition
T5 construct: made in house
T5 sequence (P12763 19-359): T1 sequence (P12763 19-359)
Protocol: as §2, §3

[10] = target: T6, ACS2P1-biotin binding to fetuin (Bos taurus, UniProt P12763); assay: biochemical; conditions: peptide μM: ACS2P1 4.1, S2P2 42.5, SPYGRC 5520, S2P3 22.4, S2P4 6.0, S2P6 319, S3P1 1142, S3P2 934, S3P3 16.1, S3P4 6.4, S3P5 22.5; ACS2P1-biotin 0.1 μg; − inhibition, + enhancement
T6 construct: purchased Sigma Chemical Company
T6 sequence (P12763 19-359): T1 sequence (P12763 19-359)

[11] = target: T7, ACS2P1-biotin binding to asialofetuin (Bos taurus, UniProt P12763); assay: Screening of S2 and S3 peptides for inhibition of ACS2P1-biotin binding to asialofetuin; conditions: peptide μM: ACS2P1 4.1, S2P2 42.5, SPYGRC 5520, S2P3 22.4, S2P4 6.0, S2P6 319, S3P1 1142, S3P2 934, S3P3 16.1, S3P4 6.4, S3P5 22.5; ACS2P1-biotin 0.1 μg; − inhibition, + enhancement
T7 construct: made in house
T7 sequence (P12763 19-359): T1 sequence (P12763 19-359)

[12] = test system: pertussis toxin binding to Chinese Hamster ovary (CHO) cell; assay: CHO cell neutralization of pertussis toxin (cell clumping); type: cell-based; conditions: PT 2.4 ng/ml, peptide and PT 1 hour, triplicate
Protocol: Confluent monolayers of CHO cells were lifted from plastic tissue culture flasks with 0.25% trypsin and suspended at a concentration of 5×10^4 cells/ml in Ham's F12 media containing 10% fetal bovine serum (FBS). 100 μl of the cell suspension was added to 96 well tissue culture plates and were allowed to establish contact with the plastic for 24 to 48 hours. The expended media was then removed and filtered-sterilized peptide 5-fold dilutions ranging in concentration from 300 to 30 femptogram per ml (80 μl) in Ham' F12 media containing FBS were added to the CHO cells. […] The incubation mixtures were gently mixed and incubated at 37° C. for 1 hour in a CO2 incubator. The incubation mixtures were then removed and replaced with fresh media. The tissue culture plates were then incubated for 24 hours at 37° C., fixed with 100% methanol, and stained with Geimsa stain. Control experiments were done in the absence of peptide alone or in the absence of PT. All determinations were done in triplicate. […] The results reported in Table VIII show the maximum peptide concentration required to cause a 50% reduction in CHO cell clumping.

Balb/c mice [13] = assay: DTH inflammatory response, mouse footpad swelling assay; type: in vivo; conditions: 100 μg peptide into the tail vein 5 hours after challenge with 20 μg OVA; FIG. 2
Protocol: DTH inflammatory responses were measured using the mouse footpad swelling assay as described by Smith and Ziola^64. Briefly, groups of Balb/c mice (about 19-20 grams each) were immunized with 100 μg of the OVA antigen containing 20μg of the adjuvant (DDA—dimethyl-dioctadecylammonium bromide) which also induces a strong inflammatory DTH response. Seven days later, each group of mice was footpad-challenged with 20 μg of the OVA antigen (without adjuvant). The resulting inflammatory footpad swelling was measured with a Mitutoyo Engineering micrometer 24 hours after challenge.
To assess the effect of different peptides on the inflammatory DTH response, groups of mice received 100 μg of the following peptides- ACS2P1 (2275), SPYGRC (2283), and S3P9a. These peptides were injected as a solution into the tail vein, 5 hours after challenge. Control groups were left untreated or received 100 μL of phosphate-buffered saline (PBS).

Balb/c mice [14] = assay: Persistence of suppression of DTH response on OVA re-challenge at 2 weeks; type: in vivo; conditions: mice treated as in Example 11, re-challenged at 2 weeks; FIG. 3
Description: Identical groups of mice treated with the peptides in Example 11 above, were re-challenged with OVA antigen 2 weeks after primary immunization.

[15] = peptide mg/mL: S2PL 1.2, ACS2P1 1.0, S2(14-2.3) 1.0, S2P2 1.1, S2P3 0.51, S2P4 0.98, S2P6 0.85, S3P1 3.2, S3P2 3.1, S3P3 4.5, S3P4 3.3, S3P5 0.48, S3P9a 1.7, SPYGRC 4.4, S2(WGA) 1.0, WGA (62-73) 1.0

Sequence of αNeuAc(2-3)βGal(1-4)βGlcNAc-BSA (P02769 25-607): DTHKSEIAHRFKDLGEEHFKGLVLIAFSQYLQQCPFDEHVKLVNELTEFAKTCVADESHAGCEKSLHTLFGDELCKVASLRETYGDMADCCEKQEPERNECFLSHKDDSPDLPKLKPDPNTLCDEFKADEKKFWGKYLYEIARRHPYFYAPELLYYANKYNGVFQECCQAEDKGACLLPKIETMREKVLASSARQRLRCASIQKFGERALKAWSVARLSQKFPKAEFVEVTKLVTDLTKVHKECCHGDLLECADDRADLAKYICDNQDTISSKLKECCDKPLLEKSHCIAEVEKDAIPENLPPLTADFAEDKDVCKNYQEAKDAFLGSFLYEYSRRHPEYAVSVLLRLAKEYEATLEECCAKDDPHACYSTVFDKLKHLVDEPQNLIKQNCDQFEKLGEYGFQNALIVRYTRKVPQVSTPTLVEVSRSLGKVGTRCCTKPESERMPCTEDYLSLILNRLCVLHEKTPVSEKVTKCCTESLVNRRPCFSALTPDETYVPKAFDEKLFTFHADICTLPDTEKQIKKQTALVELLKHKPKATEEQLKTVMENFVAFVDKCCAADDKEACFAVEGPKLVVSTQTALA
Sequence of αNeuAc(2-3)βGal(1-3)βGlcNAc-BSA (P02769 25-607): as above
Sequence of αNeuAc(2-3)βGal(1-4)βGlcNAc-BSA (1-3) αFuc (P02769 25-607): as above
Sequence of αNeuAc(2-3)βGal(1-3)βGlcNAc-BSA (1-4) αFuc (P02769 25-607): as above

Row | Substance | % Binding Relative to Fetuin of SPYGRC-b (n = 3) [1] | % Binding Relative to Fetuin of SPYGRC-b (n = 3) [2] | % Binding Relative to Fetuin of SPYGRC-b (n = 3) [3] | % Binding Relative to Fetuin of SPYGRC-b (n = 3) ([4]; SLacNAc (table row r10)) | % Binding Relative to Fetuin of SPYGRC-b (n = 3) ([4]; SLacNAc (table row r12)) | % Changes in Binding Activity, PT-b to fetuin ([5]; SPYGRC peptide 4.4 mg/ml) | Percent Changes in Binding Activity PT/fetuin [5, 15] | % Changes in Binding Activity, MAL-5 to fetuin ([6]; SPYGRC peptide 4.4 mg/ml) | Percent Changes in Binding Activity MAL/fetuin [6, 15] | % Changes in Binding Activity, SNA-b to fetuin ([7]; SPYGRC peptide 4.4 mg/ml) | Percent Changes in Binding Activity SNA/fetuin [7, 15] | % Changes in Binding Activity, WGA-b to fetuin ([8]; SPYGRC peptide 4.4 mg/ml) | Percent Changes in Binding Activity WGA/fetuin ([8]; peptide mg/mL: S2PL 1.2, ACS2P1 1.0, S2(14-2.3) 1.0, S2P2 1.1, S2P3 0.51, S2P4 0.98, S2P6 0.85, S3P1 3.2, S3P2 3.1, S3P3 4.5, S3P4 3.3, S3P5 0.48, SPYGRC 4.4, S2(WGA) 1.0, WGA (62-73) 1.0) | Percent Changes in Binding Activity PT/asialo-fetuin [9] | Percent Change in Binding Activity Fetuin [10] | Percent Change in Binding Activity Asialofetuin [11] | Maximal Inhibitory Concentration for Greater than 50% Inhibition [12] | effect on DTH inflammatory response (footpad swelling 24 hours after challenge), in words (Balb/c mice [13]) | DTH response (footpad swelling) on later re-challenge with OVA antigen, in words (Balb/c mice [14])
1 | BIOTIN-SPYGRC-CO—NH2 [SPYGRC-b] | 103 ± 8% | 97 ± 12% | 120 ± 4% | 120 ± 7% | 122 ± 5% |  |  |  |  |  |  |  |  |  |  |  |  |  | 
2 | SPYGRC-CO—NH2 |  |  |  |  |  | +34 ± 2% | +34 ± 2% | −16 ± 0% | −16 ± 0% | −2 ± 1% | −2 ± 2% | +7 + 3% | +7 ± 3% | +7 ± 9% | −24 ± 2% | −54 ± 3% | 480 pg/mL | effective in reducing a DTH response in mice | reduced immune response
